Laboratory results published in paper PMC10046369, “Low-Affinity/High-Selectivity Dopamine Transport Inhibition Sufficient to Rescue Cognitive Functions in the Aging Rat” (Biomolecules, 2023).

Tests used:
Assay in all cases: biochemical
Set-up in all cases: KINOMEscan competition binding panel, per cent of control
Conditions in all cases: read-out: %Ctrl @ 2800nM
NEK10 = NEK10 (Homo sapiens, UniProt Q6ZWH5)
Summary of the method: (§1)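 Values are expressed as percent of control, calculated as ((test − positive control)/(negative control − positive control)) × 100, so lower numbers mean stronger hits. Binding was measured by KINOMEscan competition assay in a 450-kinase human panel including disease mutants, using the contractor's validated protocol.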

ERBB4 = ERBB4 (Homo sapiens, UniProt Q15303)
Summary of the method: as §1

PKN2 = PKN2 (Homo sapiens, UniProt Q16513)
Summary of the method: as §1

SRPK1 = SRPK1 (Homo sapiens, UniProt Q96SB4)
Summary of the method: as §1

RET(V804M) = RET(V804M) (Homo sapiens, UniProt P07949, V804M)
Summary of the method: as §1

SIK2 = SIK2 (Homo sapiens, UniProt Q9H0K1)
Summary of the method: as §1

[1] = target: T1, JAK1(JH1domain-catalytic) (Homo sapiens, UniProt P23458)
T1 construct: JH1domain-catalytic
Summary of the method: as §1

[2] = target: T2, ABL1(F317I)-nonphosphorylated (Homo sapiens, UniProt P00519, F317I)
T2 construct: nonphosphorylated
Summary of the method: as §1

PIK3CA(H1047Y) = PIK3CA(H1047Y) (Homo sapiens, UniProt P42336, H1047Y)
Summary of the method: as §1

FYN = FYN (Homo sapiens, UniProt P06241)
Summary of the method: as §1

ERK1 = target: T3, ERK1 (Homo sapiens, UniProt P27361)
T3 construct: gene MAPK3
Summary of the method: as §1

ERK3 = target: T4, ERK3 (Homo sapiens, UniProt Q16659)
T4 construct: gene MAPK6
Summary of the method: as §1

MKK7 = target: T5, MKK7 (Homo sapiens, UniProt O14733)
T5 construct: gene MAP2K7
Summary of the method: as §1

MLCK = target: T6, MLCK (Homo sapiens, UniProt Q32MK0)
T6 construct: gene MYLK3
Summary of the method: as §1

FLT3(ITD) = FLT3(ITD) (Homo sapiens, UniProt P36888, ITD)
Summary of the method: as §1

ARK5 = target: T7, ARK5 (Homo sapiens, UniProt O60285)
T7 construct: gene NUAK1
Summary of the method: as §1

SNARK = target: T8, SNARK (Homo sapiens, UniProt Q9H093)
T8 construct: gene NUAK2
Summary of the method: as §1

AXL = AXL (Homo sapiens, UniProt P30530)
Summary of the method: as §1

CAMK4 = CAMK4 (Homo sapiens, UniProt Q16566)
Summary of the method: as §1

PAK6 = PAK6 (Homo sapiens, UniProt Q9NQU5)
Summary of the method: as §1

STK39 = STK39 (Homo sapiens, UniProt Q9UEW8)
Summary of the method: as §1

p38-beta = target: T9, p38-beta (Homo sapiens, UniProt Q15759)
T9 construct: gene MAPK11
Summary of the method: as §1

ROS1 = ROS1 (Homo sapiens, UniProt P08922)
Summary of the method: as §1

DMPK = DMPK (Homo sapiens, UniProt Q09013)
Summary of the method: as §1

p38-gamma = target: T10, p38-gamma (Homo sapiens, UniProt P53778)
T10 construct: gene MAPK12
Summary of the method: as §1

MET = MET (Homo sapiens, UniProt P08581)
Summary of the method: as §1

Sequence of SIK2 (Q9H0K1 whole entry): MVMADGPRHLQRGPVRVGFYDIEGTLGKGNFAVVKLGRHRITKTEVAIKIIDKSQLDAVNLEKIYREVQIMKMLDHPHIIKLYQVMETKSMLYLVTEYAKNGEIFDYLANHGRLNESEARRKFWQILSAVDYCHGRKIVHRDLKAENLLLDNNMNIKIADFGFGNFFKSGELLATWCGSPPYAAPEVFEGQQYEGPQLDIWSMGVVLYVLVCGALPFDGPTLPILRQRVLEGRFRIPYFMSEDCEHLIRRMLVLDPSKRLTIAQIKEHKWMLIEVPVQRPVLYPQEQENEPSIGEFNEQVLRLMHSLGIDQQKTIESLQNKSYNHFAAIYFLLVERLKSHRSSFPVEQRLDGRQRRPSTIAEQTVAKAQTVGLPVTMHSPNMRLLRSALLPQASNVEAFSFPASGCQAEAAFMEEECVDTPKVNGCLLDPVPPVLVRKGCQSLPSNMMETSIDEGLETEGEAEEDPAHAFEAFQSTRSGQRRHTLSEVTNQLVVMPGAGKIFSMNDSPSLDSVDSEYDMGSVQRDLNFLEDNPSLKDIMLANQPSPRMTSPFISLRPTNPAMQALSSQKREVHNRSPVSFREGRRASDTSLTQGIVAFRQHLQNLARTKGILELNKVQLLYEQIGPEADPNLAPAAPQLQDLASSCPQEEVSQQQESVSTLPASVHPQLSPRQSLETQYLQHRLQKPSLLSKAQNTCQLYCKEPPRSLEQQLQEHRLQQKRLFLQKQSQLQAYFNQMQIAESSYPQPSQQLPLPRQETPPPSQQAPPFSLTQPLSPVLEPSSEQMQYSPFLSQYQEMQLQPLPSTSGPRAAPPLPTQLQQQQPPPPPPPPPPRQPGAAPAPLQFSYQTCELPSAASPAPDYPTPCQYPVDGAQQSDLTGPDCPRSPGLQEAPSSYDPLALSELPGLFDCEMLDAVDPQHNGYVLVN
T9 sequence (Q15759 whole entry): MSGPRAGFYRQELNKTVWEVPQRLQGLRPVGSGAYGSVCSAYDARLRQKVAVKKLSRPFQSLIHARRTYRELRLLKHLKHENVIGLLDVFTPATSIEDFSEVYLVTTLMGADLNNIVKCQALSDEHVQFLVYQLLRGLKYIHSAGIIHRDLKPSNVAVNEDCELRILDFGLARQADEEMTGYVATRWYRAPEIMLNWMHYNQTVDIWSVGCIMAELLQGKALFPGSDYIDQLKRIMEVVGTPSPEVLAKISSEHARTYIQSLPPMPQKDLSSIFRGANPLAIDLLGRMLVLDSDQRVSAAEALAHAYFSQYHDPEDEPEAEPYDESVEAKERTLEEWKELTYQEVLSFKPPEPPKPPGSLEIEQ
T8 sequence (Q9H093 whole entry): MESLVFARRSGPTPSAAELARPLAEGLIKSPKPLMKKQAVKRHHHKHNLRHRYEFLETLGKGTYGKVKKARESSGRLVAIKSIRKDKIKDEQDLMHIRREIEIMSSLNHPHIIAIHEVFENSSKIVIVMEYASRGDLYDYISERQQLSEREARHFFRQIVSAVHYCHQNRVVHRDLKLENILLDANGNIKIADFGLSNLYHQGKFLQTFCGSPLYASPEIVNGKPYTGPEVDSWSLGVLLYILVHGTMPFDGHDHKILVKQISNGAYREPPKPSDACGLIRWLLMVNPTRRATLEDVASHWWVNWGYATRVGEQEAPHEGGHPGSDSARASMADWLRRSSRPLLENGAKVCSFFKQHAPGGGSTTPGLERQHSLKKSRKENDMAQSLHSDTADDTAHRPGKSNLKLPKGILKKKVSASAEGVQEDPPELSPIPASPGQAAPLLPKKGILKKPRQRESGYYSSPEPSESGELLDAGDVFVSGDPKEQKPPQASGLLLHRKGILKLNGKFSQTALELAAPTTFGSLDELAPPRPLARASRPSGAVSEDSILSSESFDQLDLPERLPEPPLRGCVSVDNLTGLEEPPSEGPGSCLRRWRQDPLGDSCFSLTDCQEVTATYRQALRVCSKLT
Sequence of DMPK (Q09013 whole entry): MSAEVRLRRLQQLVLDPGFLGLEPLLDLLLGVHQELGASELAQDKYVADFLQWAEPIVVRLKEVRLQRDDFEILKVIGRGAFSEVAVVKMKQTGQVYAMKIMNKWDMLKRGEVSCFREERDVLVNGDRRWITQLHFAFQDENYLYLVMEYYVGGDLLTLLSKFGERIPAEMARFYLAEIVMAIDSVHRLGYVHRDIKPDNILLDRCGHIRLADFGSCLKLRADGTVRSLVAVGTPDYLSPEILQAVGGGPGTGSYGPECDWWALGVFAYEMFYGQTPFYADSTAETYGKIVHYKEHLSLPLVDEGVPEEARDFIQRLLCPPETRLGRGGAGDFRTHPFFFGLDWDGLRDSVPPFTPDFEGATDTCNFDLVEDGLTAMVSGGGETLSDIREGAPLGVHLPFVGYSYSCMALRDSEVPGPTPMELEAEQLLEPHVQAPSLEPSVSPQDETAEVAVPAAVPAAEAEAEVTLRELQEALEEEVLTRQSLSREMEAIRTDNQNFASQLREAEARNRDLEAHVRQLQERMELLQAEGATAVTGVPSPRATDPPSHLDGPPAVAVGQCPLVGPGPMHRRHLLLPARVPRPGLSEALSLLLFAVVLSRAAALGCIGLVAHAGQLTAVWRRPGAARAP
T2 sequence (P00519 whole entry F317I): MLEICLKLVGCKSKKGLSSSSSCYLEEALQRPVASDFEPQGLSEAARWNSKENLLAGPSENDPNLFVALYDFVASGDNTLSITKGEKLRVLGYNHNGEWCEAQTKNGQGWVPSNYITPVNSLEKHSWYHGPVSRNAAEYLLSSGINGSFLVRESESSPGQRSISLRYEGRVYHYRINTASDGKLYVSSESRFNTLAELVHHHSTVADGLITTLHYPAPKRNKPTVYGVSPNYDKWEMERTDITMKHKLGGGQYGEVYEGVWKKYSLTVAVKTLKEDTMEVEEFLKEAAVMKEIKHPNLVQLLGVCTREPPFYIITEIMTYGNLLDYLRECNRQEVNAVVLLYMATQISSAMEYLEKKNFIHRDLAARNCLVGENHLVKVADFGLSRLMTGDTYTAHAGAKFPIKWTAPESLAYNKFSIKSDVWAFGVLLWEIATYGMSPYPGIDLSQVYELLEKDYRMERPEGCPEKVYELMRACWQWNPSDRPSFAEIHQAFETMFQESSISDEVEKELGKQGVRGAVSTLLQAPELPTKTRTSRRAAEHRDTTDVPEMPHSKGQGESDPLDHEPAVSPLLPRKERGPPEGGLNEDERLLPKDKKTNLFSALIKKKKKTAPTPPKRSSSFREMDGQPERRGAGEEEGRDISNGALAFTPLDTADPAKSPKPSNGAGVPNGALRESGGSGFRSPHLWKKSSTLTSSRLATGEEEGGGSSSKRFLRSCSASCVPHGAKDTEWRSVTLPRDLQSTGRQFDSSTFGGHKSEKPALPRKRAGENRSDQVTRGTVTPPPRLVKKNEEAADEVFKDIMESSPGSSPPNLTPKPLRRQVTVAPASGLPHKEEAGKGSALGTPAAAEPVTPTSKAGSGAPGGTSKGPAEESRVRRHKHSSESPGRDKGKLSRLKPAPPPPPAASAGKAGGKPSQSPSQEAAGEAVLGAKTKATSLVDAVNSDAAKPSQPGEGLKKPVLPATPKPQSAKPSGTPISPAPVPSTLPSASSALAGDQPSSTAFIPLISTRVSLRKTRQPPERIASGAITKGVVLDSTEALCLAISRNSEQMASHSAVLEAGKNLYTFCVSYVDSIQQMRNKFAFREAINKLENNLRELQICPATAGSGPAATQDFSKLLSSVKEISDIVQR
T1 sequence (P23458 whole entry): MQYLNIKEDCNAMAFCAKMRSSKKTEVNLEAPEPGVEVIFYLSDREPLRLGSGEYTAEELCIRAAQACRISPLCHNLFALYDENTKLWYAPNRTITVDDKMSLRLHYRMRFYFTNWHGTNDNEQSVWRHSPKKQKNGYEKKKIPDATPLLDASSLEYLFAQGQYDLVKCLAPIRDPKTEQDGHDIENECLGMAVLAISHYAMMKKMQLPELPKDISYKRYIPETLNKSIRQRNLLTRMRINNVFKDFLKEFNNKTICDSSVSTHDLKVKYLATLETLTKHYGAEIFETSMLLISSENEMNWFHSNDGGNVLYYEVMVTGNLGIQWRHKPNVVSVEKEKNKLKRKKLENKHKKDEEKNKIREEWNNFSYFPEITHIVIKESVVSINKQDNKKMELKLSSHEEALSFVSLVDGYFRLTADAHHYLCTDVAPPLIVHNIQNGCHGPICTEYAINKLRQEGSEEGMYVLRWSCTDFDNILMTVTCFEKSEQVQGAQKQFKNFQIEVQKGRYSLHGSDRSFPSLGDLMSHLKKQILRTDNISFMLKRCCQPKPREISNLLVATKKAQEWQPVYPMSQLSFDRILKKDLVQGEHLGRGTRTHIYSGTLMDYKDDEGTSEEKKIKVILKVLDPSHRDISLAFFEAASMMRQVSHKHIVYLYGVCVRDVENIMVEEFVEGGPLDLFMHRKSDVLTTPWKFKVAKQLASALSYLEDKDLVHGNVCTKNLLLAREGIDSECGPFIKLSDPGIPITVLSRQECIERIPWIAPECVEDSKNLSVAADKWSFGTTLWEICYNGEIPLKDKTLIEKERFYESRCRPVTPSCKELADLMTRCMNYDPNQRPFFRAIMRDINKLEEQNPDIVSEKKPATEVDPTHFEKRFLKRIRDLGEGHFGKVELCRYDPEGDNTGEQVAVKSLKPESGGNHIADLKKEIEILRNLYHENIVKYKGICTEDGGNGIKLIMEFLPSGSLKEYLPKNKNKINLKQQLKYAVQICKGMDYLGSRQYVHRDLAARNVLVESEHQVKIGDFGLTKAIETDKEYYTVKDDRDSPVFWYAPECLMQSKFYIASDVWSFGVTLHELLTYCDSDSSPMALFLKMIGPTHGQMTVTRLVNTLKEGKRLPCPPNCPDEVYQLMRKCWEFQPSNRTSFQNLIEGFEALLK

[O-][S@@+](Cc1cncs1)C(c1ccccc1)c1ccccc1 [S-CE-123, (S)-5-((Benzhydrylsulfinyl)Methyl)Thiazole]
remaining binding at 2.8 µM (NEK10): 100% | remaining binding at 2.8 µM (ERBB4): 96% | remaining binding at 2.8 µM (PKN2): 86% | remaining binding at 2.8 µM (SRPK1): 92% | remaining binding at 2.8 µM (RET(V804M)): 95% | remaining binding at 2.8 µM (SIK2): 100% | remaining binding at 2.8 µM [1]: 93% | remaining binding at 2.8 µM [2]: 100% | remaining binding at 2.8 µM (PIK3CA(H1047Y)): 100% | remaining binding at 2.8 µM (FYN): 93% | remaining binding at 2.8 µM (ERK1): 91% | remaining binding at 2.8 µM (ERK3): 93% | remaining binding at 2.8 µM (MKK7): 100% | remaining binding at 2.8 µM (MLCK): 96% | remaining binding at 2.8 µM (FLT3(ITD)): 100% | remaining binding at 2.8 µM (ARK5): 100% | remaining binding at 2.8 µM (SNARK): 100% | remaining binding at 2.8 µM (AXL): 96% | remaining binding at 2.8 µM (CAMK4): 91% | remaining binding at 2.8 µM (PAK6): 100% | remaining binding at 2.8 µM (STK39): 100% | remaining binding at 2.8 µM (p38-beta): 94% | remaining binding at 2.8 µM (ROS1): 91% | remaining binding at 2.8 µM (DMPK): 96% | remaining binding at 2.8 µM (p38-gamma): 100% | remaining binding at 2.8 µM (MET): 99%
